Measurements taken from the supplement of paper PMC10307832.

Assays:
Experiment in all cases: relative viability (nuclei count vs DMSO), 5 days (fraction); higher = more cells survive
Masitinib + Pictilisib = compound: Cc1ccc(NC(=O)c2ccc(CN3CCN(C)CC3)cc2)cc1Nc1nc(-c2cccnc2)cs1 [Masitinib] + CS(=O)(=O)N1CCN(Cc2cc3nc(-c4cccc5[nH]ncc45)nc(N4CCOCC4)c3s2)CC1 [Pictilisib] (partner 1 µM)
Outline: (§1)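 Lung cancer cell lines in 1536-well plates were dosed by pin tool the day after seeding, either with one drug alone or with a fixed anchor-drug dose plus five library-drug doses (not always all listed) in √10 steps. After 5 days, cells were fixed and their nuclei stained in one step (final 0.05% Triton X-100, 1% formaldehyde, 1 ug/ml Hoechst), then counted on 4× images. Relative viability is the nuclei count in treated wells divided by that in vehicle wells. Values are medians of duplicate plates.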

Masitinib + Palbociclib = compound: Cc1ccc(NC(=O)c2ccc(CN3CCN(C)CC3)cc2)cc1Nc1nc(-c2cccnc2)cs1 [Masitinib] + CC(=O)c1c(C)c2cnc(Nc3ccc(N4CCNCC4)cn3)nc2n(C2CCCC2)c1=O [Palbociclib] (partner 0.5 µM)
Outline: as §1

[1] = compound: CC1=CC(=CC=C1)NC2=NC(=CS2)C3=CC=NC=C3 + CC(=O)c1c(C)c2cnc(Nc3ccc(N4CCNCC4)cn3)nc2n(C2CCCC2)c1=O [Palbociclib] (partner 0.5 µM)
Outline: as §1

Masitinib + Olaparib = compound: Cc1ccc(NC(=O)c2ccc(CN3CCN(C)CC3)cc2)cc1Nc1nc(-c2cccnc2)cs1 [Masitinib] + O=C(c1cc(Cc2n[nH]c(=O)c3ccccc23)ccc1F)N1CCN(C(=O)C2CC2)CC1 [Olaparib] (partner 8 µM)
Outline: as §1

| Cell Line | relative viability (Masitinib + Pictilisib; first compound 0.01 µM) | relative viability (Masitinib + Pictilisib; first compound 0.03162 µM) | relative viability (Masitinib + Pictilisib; first compound 0.1 µM) | relative viability (Masitinib + Pictilisib; first compound 0.3162 µM) | relative viability (Masitinib + Pictilisib; first compound 1 µM) | relative viability (Masitinib + Palbociclib; first compound 0.01 µM) | relative viability (Masitinib + Palbociclib; first compound 0.03162 µM) | relative viability (Masitinib + Palbociclib; first compound 0.1 µM) | relative viability (Masitinib + Palbociclib; first compound 0.3162 µM) | relative viability (Masitinib + Palbociclib; first compound 1 µM) | relative viability ([1]; first compound 0.08 µM) | relative viability ([1]; first compound 0.253 µM) | relative viability ([1]; first compound 0.8 µM) | relative viability ([1]; first compound 8 µM) | relative viability (Masitinib + Olaparib; first compound 0.01 µM) | relative viability (Masitinib + Olaparib; first compound 0.03162 µM) | relative viability (Masitinib + Olaparib; first compound 0.1 µM) | relative viability (Masitinib + Olaparib; first compound 0.3162 µM) | relative viability (Masitinib + Olaparib; first compound 1 µM) | relative viability ([1]; first compound 2.53 µM) |
| --- | --- | --- | --- | --- | --- | --- | --- | --- | --- | --- | --- | --- | --- | --- | --- | --- | --- | --- | --- | --- |
| NCI-H2405 | 0.434 | 0.382 | 0.445 | 0.302 | 0.332 | 0.48 | 0.504 | 0.508 | 0.499 | 0.514 | 0.49 | 0.489 | 0.488 | 0.498 | 0.78 | 0.816 | 0.873 | 0.722 | 0.827 |  |
| NCI-H3122 | 0.579 | 0.623 | 0.595 | 0.677 | 0.574 | 0.163 | 0.197 | 0.227 | 0.18 | 0.175 | 0.185 | 0.193 | 0.384 | 0.193 | 0.64 | 0.604 | 0.703 | 0.589 | 0.615 | 0.253 |
| PC-3 [JPC-3] | 0.71 | 0.761 | 0.761 | 0.459 | 0.656 | 0.438 | 0.498 | 0.553 | 0.526 | 0.466 | 0.542 |  | 0.503 | 0.481 | 0.985 | 1.11 | 1.22 | 0.932 | 1.11 | 0.477 |
| PC-14 | 0.603 | 0.613 | 0.77 | 0.747 | 0.657 | 0.57 | 0.323 | 0.636 | 0.57 | 0.621 | 0.502 | 0.484 | 0.553 | 0.394 | 0.277 | 0.256 | 0.249 | 0.232 | 0.204 | 0.515 |
| RERF-LC-KJ | 0.496 | 0.514 | 0.617 | 0.404 | 0.457 | 1.05 | 1.02 | 1.09 | 1.21 | 0.938 | 1 | 0.998 | 0.743 | 0.618 | 0.935 | 0.916 | 0.978 | 0.672 | 0.852 | 0.787 |
| SK-LU-1 | 0.483 | 0.53 | 0.643 | 0.549 | 0.518 | 0.431 | 0.362 | 0.373 | 0.405 | 0.416 | 0.405 | 0.404 | 0.293 | 0.37 | 0.419 | 0.486 | 0.436 | 0.524 | 0.497 | 0.479 |
| SK-MES-1 | 0.346 | 0.312 | 0.406 | 0.332 | 0.371 | 0.306 | 0.269 | 0.318 | 0.302 | 0.336 | 0.259 | 0.243 | 0.328 | 0.32 | 0.775 | 0.761 | 0.798 | 0.629 | 0.653 | 0.311 |
| SW 1573 | 0.471 | 0.542 | 0.478 | 0.472 | 0.452 | 0.357 | 0.372 | 0.446 | 0.41 | 0.374 | 0.443 | 0.364 | 0.43 | 0.257 | 0.505 | 0.472 | 0.591 | 0.431 | 0.453 | 0.426 |
